Experiments:
Assay in all cases: cells
Ca9-22 = type: functional, cell-based, Homo sapiens; details: Homo sapiens, Ca9-22;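 also: growth inhibition of Ca9-22 cells, read out with a cell viability assay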
Description: SANGER: Inhibition of human Ca9-22 cell growth in a cell viability assay.

D283 Med = type: functional, cell-based, Homo sapiens; details: Homo sapiens, D283 Med
Description: SANGER: Inhibition of human D-283MED cell growth in a cell viability assay.

EGI-1 = type: functional, cell-based, Homo sapiens; details: Homo sapiens, EGI-1;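 also: cell viability readout used to gauge growth inhibition of EGI-1 cells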
Description: SANGER: Inhibition of human EGI-1 cell growth in a cell viability assay.

EW-16 = type: functional, cell-based, Homo sapiens; details: Homo sapiens, EW-16;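 also: growth inhibition of human EW-16 cells, read out as cell viability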
Description: SANGER: Inhibition of human EW-16 cell growth in a cell viability assay.

GAMG = type: functional, cell-based, Homo sapiens; details: Homo sapiens, GAMG;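 also: cell growth inhibition measured by a viability assay in the GAMG human cell line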
Description: SANGER: Inhibition of human GAMG cell growth in a cell viability assay.

GI-ME-N = type: functional, cell-based, Homo sapiens; details: Homo sapiens, GI-ME-N;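 also: growth inhibition of human GI-ME-N cells, read out with a cell viability assay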
Description: SANGER: Inhibition of human GI-ME-N cell growth in a cell viability assay.

GP5d = type: functional, cell-based, Homo sapiens; details: Homo sapiens, GP5d;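 also: growth inhibition of human GP5d cells, read out with a cell viability assay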
Description: SANGER: Inhibition of human GP5d cell growth in a cell viability assay.

HAL-01 = type: functional, cell-based; details: Homo sapiens;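 also: growth inhibition of human HAL-01 cells, read out with a cell viability assay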
Description: SANGER: Inhibition of human HAL-01 cell growth in a cell viability assay.

HOP-62 = type: functional, cell-based, Homo sapiens; details: Homo sapiens, HOP-62;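 also: cell growth inhibition determined with a viability assay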
Description: SANGER: Inhibition of human HOP-62 cell growth in a cell viability assay.

HT-1080 = type: functional, cell-based, Homo sapiens; details: Homo sapiens, HT-1080
Description: SANGER: Inhibition of human HT-1080 cell growth in a cell viability assay.

IST-MES1 = type: functional, cell-based, Homo sapiens; details: Homo sapiens, IST-MES1;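 also: growth inhibition of IST-MES1 cells, measured with a cell viability assay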
Description: SANGER: Inhibition of human IST-MES1 cell growth in a cell viability assay.

KG-1 = type: functional, cell-based; details: Homo sapiens;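 also: growth inhibition of KG-1 cells, read out by a cell viability assay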
Description: SANGER: Inhibition of human KG-1 cell growth in a cell viability assay.

KURAMOCHI = type: functional, cell-based; details: Homo sapiens;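 also: growth inhibition of KURAMOCHI cells, read out with a cell viability assay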
Description: SANGER: Inhibition of human KURAMOCHI cell growth in a cell viability assay.

LAN-6 = type: functional, cell-based, Homo sapiens; details: Homo sapiens, LAN-6;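 also: growth inhibition of LAN-6 cells, determined with a cell viability assay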
Description: SANGER: Inhibition of human LAN-6 cell growth in a cell viability assay.

LB2518-MEL = type: functional, cell-based, Homo sapiens; details: Homo sapiens, LB2518-MEL;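 also: growth inhibition of human LB2518-MEL cells, measured with a cell viability assay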
Description: SANGER: Inhibition of human LB2518-MEL cell growth in a cell viability assay.

LB771-HNC = type: functional, cell-based, Homo sapiens; details: Homo sapiens, LB771-HNC;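 also: growth inhibition of LB771-HNC human cells, read out with a cell viability assay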
Description: SANGER: Inhibition of human LB771-HNC cell growth in a cell viability assay.

LK-2 = type: functional, cell-based, Homo sapiens; details: Homo sapiens, LK-2;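 also: growth inhibition of LK-2 cells, read out with a viability assay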
Description: SANGER: Inhibition of human LK-2 cell growth in a cell viability assay.

MKN-7 = type: functional, cell-based, Homo sapiens; details: Homo sapiens, MKN-7;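 also: growth inhibition of MKN-7 cells, read out with a cell viability assay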
Description: SANGER: Inhibition of human MKN7 cell growth in a cell viability assay.

NCI-H1155 = type: functional, cell-based; details: Homo sapiens;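 also: cell growth inhibition measured by a viability assay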
Description: SANGER: Inhibition of human NCI-H1155 cell growth in a cell viability assay.

NCI-H1581 = type: functional, cell-based, Homo sapiens; details: Homo sapiens, NCI-H1581;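 also: cell growth inhibition read out by a viability assay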
Description: SANGER: Inhibition of human NCI-H1581 cell growth in a cell viability assay.

NCI-H1693 = type: functional, cell-based, Homo sapiens; details: Homo sapiens, NCI-H1693;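 also: growth inhibition of the human cell line, read out with a cell viability assay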
Description: SANGER: Inhibition of human NCI-H1693 cell growth in a cell viability assay.

NCI-H1793 = type: functional, cell-based, Homo sapiens; details: Homo sapiens, NCI-H1793;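 also: cell growth inhibition, read out by a cell viability assay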
Description: SANGER: Inhibition of human NCI-H1793 cell growth in a cell viability assay.

NCI-H209 = type: functional, cell-based; details: Homo sapiens;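 also: growth inhibition of human NCI-H209 cells, measured by a cell viability assay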
Description: SANGER: Inhibition of human NCI-H209 cell growth in a cell viability assay.

NCI-H28 = type: functional, cell-based, Homo sapiens; details: Homo sapiens, NCI-H28;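 also: growth inhibition of human NCI-H28 cells, read out as cell viability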
Description: SANGER: Inhibition of human NCI-H28 cell growth in a cell viability assay.

NCI-H358 = type: functional, cell-based, Homo sapiens; details: Homo sapiens, NCI-H358;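 also: growth inhibition of NCI-H358 human cells, read out with a cell viability assay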
Description: SANGER: Inhibition of human NCI-H358 cell growth in a cell viability assay.

NCI-H720 = type: functional, cell-based; details: Homo sapiens;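 also: growth inhibition of human NCI-H720 cells determined by a cell viability assay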
Description: SANGER: Inhibition of human NCI-H720 cell growth in a cell viability assay.

NKM-1 = type: functional, cell-based; details: Homo sapiens;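 also: growth inhibition of NKM-1 cells, read out with a cell viability assay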
Description: SANGER: Inhibition of human NKM-1 cell growth in a cell viability assay.

ONS-76 = type: functional, cell-based, Homo sapiens; details: Homo sapiens, ONS-76;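 also: growth inhibition of human ONS-76 cells, read out with a cell viability assay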
Description: SANGER: Inhibition of human ONS-76 cell growth in a cell viability assay.

Panc1005 = type: functional, cell-based, Homo sapiens; details: Homo sapiens, Panc1005;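 also: growth inhibition of human PANC-10-05 cells, measured by a cell viability assay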
Description: SANGER: Inhibition of human PANC-10-05 cell growth in a cell viability assay.

RT-112 = type: functional, cell-based, Homo sapiens; details: Homo sapiens, RT-112
Description: SANGER: Inhibition of human RT-112 cell growth in a cell viability assay.

SCC-25 = type: functional, cell-based, Homo sapiens; details: Homo sapiens, SCC-25;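 also: growth inhibition of SCC-25 cells, measured with a cell viability assay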
Description: SANGER: Inhibition of human SCC-25 cell growth in a cell viability assay.

SJSA-1 = type: functional, cell-based, Homo sapiens; details: Homo sapiens, SJSA-1;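 also: growth inhibition of human SJSA-1 cells, read out through a cell viability measurement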
Description: SANGER: Inhibition of human SJSA-1 cell growth in a cell viability assay.

SK-MES-1 = type: functional, cell-based, Homo sapiens; details: Homo sapiens, SK-MES-1;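 also: growth inhibition of human SK-MES-1 cells, read out with a cell viability assay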
Description: SANGER: Inhibition of human SK-MES-1 cell growth in a cell viability assay.

SK-OV-3 = type: functional, cell-based, Homo sapiens; details: Homo sapiens, SK-OV-3;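 also: growth inhibition of SK-OV-3 human cells, read out with a cell viability assay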
Description: SANGER: Inhibition of human SK-OV-3 cell growth in a cell viability assay.

SNU-449 = type: functional, cell-based, Homo sapiens; details: Homo sapiens, SNU-449
Description: SANGER: Inhibition of human SNU-449 cell growth in a cell viability assay.

SNU-C2B = type: functional, cell-based, Homo sapiens; details: Homo sapiens, SNU-C2B;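 also: cell viability readout used to measure compound-driven suppression of SNU-C2B cell proliferation, IC50 marking half-maximal growth inhibition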
Description: SANGER: Inhibition of human SNU-C2B cell growth in a cell viability assay.

SW1573 = type: functional, cell-based, Homo sapiens; details: Homo sapiens, SW1573;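 also: growth inhibition of SW1573 cells, read out with a cell viability assay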
Description: SANGER: Inhibition of human SW1573 cell growth in a cell viability assay.

647-V = type: functional, cell-based, Homo sapiens; details: Homo sapiens, 647-V;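 also: growth inhibition of 647-V cells, read out with a cell viability assay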
Description: SANGER: Inhibition of human 647-V cell growth in a cell viability assay.

8-MG-BA = type: functional, cell-based, Homo sapiens; details: Homo sapiens, 8-MG-BA;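 also: growth inhibition of 8-MG-BA cells, read out with a cell viability assay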
Description: SANGER: Inhibition of human 8-MG-BA cell growth in a cell viability assay.

8505C = type: functional, cell-based, Homo sapiens; details: Homo sapiens, 8505C
Description: SANGER: Inhibition of human 8505C cell growth in a cell viability assay.

A253 cell line = type: functional, cell-based, Homo sapiens; details: Homo sapiens, A253;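 also: growth inhibition of A253 cells, read out with a cell viability assay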
Description: SANGER: Inhibition of human A253 cell growth in a cell viability assay.

A2780 = type: functional, cell-based, Homo sapiens; details: Homo sapiens, A2780;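 also: growth inhibition of A2780 cells, read out with a cell viability assay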
Description: SANGER: Inhibition of human A2780 cell growth in a cell viability assay.

A4-Fuk = type: functional, cell-based; details: Homo sapiens;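 also: growth inhibition of A4-Fuk cells, read out by a cell viability assay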
Description: SANGER: Inhibition of human A4-Fuk cell growth in a cell viability assay.

AGS = type: functional, cell-based, Homo sapiens; details: Homo sapiens, AGS;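 also: growth inhibition of AGS cells, determined with a cell viability assay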
Description: SANGER: Inhibition of human AGS cell growth in a cell viability assay.

BCPAP = type: functional, cell-based, Homo sapiens; details: Homo sapiens, BCPAP;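 also: growth inhibition of BCPAP cells, read out in a cell viability assay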
Description: SANGER: Inhibition of human BCPAP cell growth in a cell viability assay.

BE-13 = type: functional, cell-based; details: Homo sapiens;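 also: growth inhibition of human BE-13 cells, measured with a cell viability assay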
Description: SANGER: Inhibition of human BE-13 cell growth in a cell viability assay.

TGBC1TKB = type: functional, cell-based, Homo sapiens; details: Homo sapiens, TGBC1TKB;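 also: growth inhibition of TGBC1TKB cells, read out by a cell viability assay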
Description: SANGER: Inhibition of human TGBC1TKB cell growth in a cell viability assay.

UMC-11 = type: functional, cell-based, Homo sapiens; details: Homo sapiens, UMC-11;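 also: growth inhibition of UMC-11 cells, read out with a cell viability assay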
Description: SANGER: Inhibition of human UMC-11 cell growth in a cell viability assay.

CHP-212 = type: functional, cell-based, Homo sapiens; details: Homo sapiens, CHP-212
Description: SANGER: Inhibition of human CHP-212 cell growth in a cell viability assay.

SMILES: COC(=O)CNC(=O)C(=O)OC
- IC50 (Ca9-22): 924 µM
- IC50 (D283 Med): 521 µM
- IC50 (EGI-1): 329 µM
- IC50 (EW-16): 377 µM
- IC50 (GAMG): 1380 µM
- IC50 (GI-ME-N): 2120 µM
- IC50 (GP5d): 636 µM
- IC50 (HAL-01): 119 µM
- IC50 (HOP-62): 167 µM
- IC50 (HT-1080): 421 µM
- IC50 (IST-MES1): > 4000 µM
- IC50 (KG-1): 81.6 µM
- IC50 (KURAMOCHI): 1570 µM
- IC50 (LAN-6): 2080 µM
- IC50 (LB2518-MEL): 235 µM
- IC50 (LB771-HNC): 412 µM
- IC50 (LK-2): > 4000 µM
- IC50 (MKN-7): > 4000 µM
- IC50 (NCI-H1155): 1540 µM
- IC50 (NCI-H1581): 729 µM
- IC50 (NCI-H1693): 3790 µM
- IC50 (NCI-H1793): 2950 µM
- IC50 (NCI-H209): 1130 µM
- IC50 (NCI-H28): 1350 µM
- IC50 (NCI-H358): 103 µM
- IC50 (NCI-H720): > 4000 µM
- IC50 (NKM-1): 126 µM
- IC50 (ONS-76): 241 µM
- IC50 (Panc1005): 264 µM
- IC50 (RT-112): 176 µM
- IC50 (SCC-25): 1230 µM
- IC50 (SJSA-1): 278 µM
- IC50 (SK-MES-1): 221 µM
- IC50 (SK-OV-3): 798 µM
- IC50 (SNU-449): 92.5 µM
- IC50 (SNU-C2B): > 4000 µM
- IC50 (SW1573): 2520 µM
- IC50 (647-V): 93.5 µM
- IC50 (8-MG-BA): 126 µM
- IC50 (8505C): 678 µM
- IC50 (A253 cell line): 232 µM
- IC50 (A2780): 2030 µM
- IC50 (A4-Fuk): 45 µM
- IC50 (AGS): 629 µM
- IC50 (BCPAP): 209 µM
- IC50 (BE-13): 180 µM
- IC50 (TGBC1TKB): 1790 µM
- IC50 (UMC-11): 147 µM
- IC50 (CHP-212): 181 µM

SMILES: COc1cc([C@@H]2c3cc4c(cc3[C@@H](O[C@@H]3O[C@@H]5CO[C@@H](C)O[C@H]5[C@H](O)[C@H]3O)[C@H]3COC(=O)[C@H]23)OCO4)cc(OC)c1O [ETOPOSIDE]
- IC50 (Ca9-22): 2.19 µM
- IC50 (D283 Med): 2.2 µM
- IC50 (EGI-1): 3.27 µM
- IC50 (EW-16): 0.0215 µM
- IC50 (GAMG): 2.61 µM
- IC50 (GI-ME-N): 9.83 µM
- IC50 (GP5d): 5.83 µM
- IC50 (HAL-01): 3.8 µM
- IC50 (HOP-62): 0.524 µM
- IC50 (HT-1080): 0.109 µM
- IC50 (IST-MES1): > 16 µM
- IC50 (KG-1): 9.72 µM
- IC50 (KURAMOCHI): 0.699 µM
- IC50 (LAN-6): > 16 µM
- IC50 (LB2518-MEL): > 16 µM
- IC50 (LB771-HNC): > 16 µM
- IC50 (LK-2): 1.41 µM
- IC50 (MKN-7): > 16 µM
- IC50 (NCI-H1155): 11 µM
- IC50 (NCI-H1581): > 16 µM
- IC50 (NCI-H1693): > 16 µM
- IC50 (NCI-H1793): 5.31 µM
- IC50 (NCI-H209): 1.21 µM
- IC50 (NCI-H28): > 16 µM
- IC50 (NCI-H358): 3.15 µM
- IC50 (NCI-H720): > 16 µM
- IC50 (NKM-1): 0.425 µM
- IC50 (ONS-76): 0.754 µM
- IC50 (Panc1005): 2.89 µM
- IC50 (RT-112): 0.621 µM
- IC50 (SCC-25): 6.63 µM
- IC50 (SJSA-1): 2.98 µM
- IC50 (SK-MES-1): 0.808 µM
- IC50 (SK-OV-3): 10.8 µM
- IC50 (SNU-449): > 16 µM
- IC50 (SNU-C2B): > 16 µM
- IC50 (SW1573): 2.25 µM
- IC50 (647-V): 0.487 µM
- IC50 (8-MG-BA): 0.0469 µM
- IC50 (8505C): 0.693 µM
- IC50 (A253 cell line): 0.0184 µM
- IC50 (A2780): 1.11 µM
- IC50 (A4-Fuk): 0.841 µM
- IC50 (AGS): 0.318 µM
- IC50 (BCPAP): 0.737 µM
- IC50 (BE-13): 0.504 µM
- IC50 (TGBC1TKB): > 16 µM
- IC50 (UMC-11): > 16 µM
- IC50 (CHP-212): 1.41 µM

SMILES: Cc1cnc(-c2cnc(NCCNc3ccc(C#N)cn3)nc2-c2ccc(Cl)cc2Cl)[nH]1 [LADUVIGLUSIB]
- IC50 (Ca9-22): > 2.56 µM
- IC50 (D283 Med): > 2.56 µM
- IC50 (EGI-1): > 2.56 µM
- IC50 (EW-16): > 2.56 µM
- IC50 (GAMG): > 2.56 µM
- IC50 (GI-ME-N): > 2.56 µM
- IC50 (GP5d): > 2.56 µM
- IC50 (HAL-01): > 2.56 µM
- IC50 (HOP-62): > 2.56 µM
- IC50 (HT-1080): > 2.56 µM
- IC50 (IST-MES1): > 2.56 µM
- IC50 (KG-1): > 2.56 µM
- IC50 (KURAMOCHI): > 2.56 µM
- IC50 (LAN-6): > 2.56 µM
- IC50 (LB2518-MEL): > 2.56 µM
- IC50 (LB771-HNC): > 2.56 µM
- IC50 (LK-2): > 2.56 µM
- IC50 (MKN-7): > 2.56 µM
- IC50 (NCI-H1155): > 2.56 µM
- IC50 (NCI-H1581): > 2.56 µM
- IC50 (NCI-H1693): > 2.56 µM
- IC50 (NCI-H1793): > 2.56 µM
- IC50 (NCI-H209): > 2.56 µM
- IC50 (NCI-H28): > 2.56 µM
- IC50 (NCI-H358): > 2.56 µM
- IC50 (NCI-H720): > 2.56 µM
- IC50 (NKM-1): > 2.56 µM
- IC50 (ONS-76): > 2.56 µM
- IC50 (Panc1005): > 2.56 µM
- IC50 (RT-112): > 2.56 µM
- IC50 (SCC-25): > 2.56 µM
- IC50 (SJSA-1): > 2.56 µM
- IC50 (SK-MES-1): > 2.56 µM
- IC50 (SK-OV-3): > 2.56 µM
- IC50 (SNU-449): > 2.56 µM
- IC50 (SNU-C2B): > 2.56 µM
- IC50 (SW1573): > 2.56 µM
- IC50 (647-V): > 2.56 µM
- IC50 (8-MG-BA): > 2.56 µM
- IC50 (8505C): > 2.56 µM
- IC50 (A253 cell line): > 2.56 µM
- IC50 (A2780): > 2.56 µM
- IC50 (A4-Fuk): > 2.56 µM
- IC50 (AGS): > 2.56 µM
- IC50 (BCPAP): 1.67 µM
- IC50 (BE-13): > 2.56 µM
- IC50 (TGBC1TKB): > 2.56 µM
- IC50 (UMC-11): > 2.56 µM
- IC50 (CHP-212): > 2.56 µM

From ChEMBL document CHEMBL1201861, “Genomics of Drug Sensitity in Cancer screening data, Wellcome Trust Sanger Institute”
